In patent US20210045385A1, “PYRIDAZINONE-SUBSTITUTED KETOXIMES AS HERBICIDES” (FMC Corporation, priority 2018, published 2021):

Experiments:
Assay type in all cases: in vivo
[1] = test system: Italian ryegrass (Lolium multiflorum); experiment: Test A postemergence, visual plant response rating; conditions: for Ryegrass, Italian plant response rating (0 to 100 scale): 500 g ai/ha, postemergence, 0 is no effect, 100 is complete control; for Ryegrass, Italian plant response rating: Postemergence, 125 g ai/ha, 0 to 100 scale (0 no effect, 100 complete control)
Method in brief: (§1)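 Formulated in a non-phytotoxic solvent mixture including surfactant, each test chemical was sprayed onto the soil surface after sowing, or onto seedlings 2 to 10 cm high. Roughly 10 days later, plants were compared with untreated controls and rated for injury from 0 (no effect) to 100 (complete control).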

corn (Zea mays) = experiment: Test A postemergence, visual plant response rating; conditions: for Corn plant response rating (0 to 100 scale): 500 g ai/ha, postemergence, 0 is no effect, 100 is complete control; for Corn plant response rating: Postemergence, 125 g ai/ha, 0 to 100 scale (0 no effect, 100 complete control)
Method in brief: as §1

[2] = test system: ragweed (common ragweed, Ambrosia elatior); experiment: Test A postemergence, visual plant response rating; conditions: for Ragweed plant response rating (0 to 100 scale): 500 g ai/ha, postemergence, 0 is no effect, 100 is complete control; for Ragweed plant response rating: Postemergence, 125 g ai/ha, 0 to 100 scale (0 no effect, 100 complete control)
Method in brief: as §1

[3] = test system: blackgrass (Alopecurus myosuroides); experiment: Test A postemergence, visual plant response rating; conditions: for Blackgrass plant response rating (0 to 100 scale): 500 g ai/ha, postemergence, 0 is no effect, 100 is complete control; for Blackgrass plant response rating: Postemergence, 125 g ai/ha, 0 to 100 scale (0 no effect, 100 complete control)
Method in brief: as §1

[4] = test system: barnyardgrass (Echinochloa crus-galli); experiment: Test A postemergence, visual plant response rating; conditions: for Barnyardgrass plant response rating (0 to 100 scale): 500 g ai/ha, postemergence, 0 is no effect, 100 is complete control; for Barnyardgrass plant response rating: Postemergence, 125 g ai/ha, 0 to 100 scale (0 no effect, 100 complete control)
Method in brief: as §1

[5] = test system: foxtail, giant (giant foxtail, Setaria faberii); experiment: Test A postemergence, visual plant response rating; conditions: for Foxtail, Giant plant response rating (0 to 100 scale): 500 g ai/ha, postemergence, 0 is no effect, 100 is complete control; for Foxtail, Giant plant response rating: Postemergence, 125 g ai/ha, 0 to 100 scale (0 no effect, 100 complete control)
Method in brief: as §1

[6] = test system: wheat (Triticum aestivum); experiment: Test A postemergence, visual plant response rating; conditions: for Wheat plant response rating (0 to 100 scale): 500 g ai/ha, postemergence, 0 is no effect, 100 is complete control; for Wheat plant response rating: Postemergence, 125 g ai/ha, 0 to 100 scale (0 no effect, 100 complete control)
Method in brief: as §1

kochia (Kochia scoparia) [7] = experiment: Test A postemergence, visual plant response rating; conditions: for Kochia plant response rating (0 to 100 scale): 500 g ai/ha, postemergence, 0 is no effect, 100 is complete control; for Kochia plant response rating: Postemergence, 125 g ai/ha, 0 to 100 scale (0 no effect, 100 complete control)
Method in brief: as §1

[8] = test system: galium (catchweed bedstraw, Galium aparine); experiment: Test A postemergence, visual plant response rating; conditions: for Galium plant response rating (0 to 100 scale): 500 g ai/ha, postemergence, 0 is no effect, 100 is complete control; for Galium plant response rating: Postemergence, 125 g ai/ha, 0 to 100 scale (0 no effect, 100 complete control)
Method in brief: as §1

[9] = test system: pigweed (Amaranthus retroflexus); experiment: Test A postemergence, visual plant response rating; conditions: for Pigweed plant response rating (0 to 100 scale): 500 g ai/ha, postemergence, 0 is no effect, 100 is complete control; for Pigweed plant response rating: Postemergence, 125 g ai/ha, 0 to 100 scale (0 no effect, 100 complete control)
Method in brief: as §1

[10] = test system: ducksalad (Heteranhera limosa); experiment: Test B flooded paddy test, visual plant response rating; conditions: 250 g ai/ha, Flood, applied to paddy water, 2-leaf stage, evaluated after 13 to 15 days
Method in brief: (§2)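 Greenhouse paddy conditions applied: two-leaf plants, a 3 cm flood above the soil surface maintained throughout, and compound added to the water rather than the foliage. Plants were judged visually against controls at 13 to 15 days.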

[11] = test system: barnyardgrass (Echinochloa crus-galli); experiment: as above; conditions: 250 g ai/ha, Flood, applied to paddy water, 2-leaf stage, evaluated after 13 to 15 days
Method in brief: as §2

rice (Oryza sativa) = experiment: as above; conditions: 250 g ai/ha, Flood, applied to paddy water, 2-leaf stage, evaluated after 13 to 15 days
Method in brief: as §2

[12] = test system: sedge, umbrella (small-flower umbrella sedge, Cyperus difformis); experiment: as above; conditions: 250 g ai/ha, Flood, applied to paddy water, 2-leaf stage, evaluated after 13 to 15 days
Method in brief: as §2

[13] = test system: Italian ryegrass (Lolium multiflorum); experiment: Test A preemergence, visual plant response rating; conditions: for Ryegrass, Italian plant response rating: 125 g ai/ha, preemergence, 0 to 100 scale, 0 no effect, 100 complete control; for Ryegrass, Italian plant response rating (0 to 100 scale): 500 g ai/ha Preemergence, approx. 10 days
Method in brief: as §1

[14] = test system: ragweed (common ragweed, Ambrosia elatior); experiment: Test A preemergence, visual plant response rating; conditions: for Ragweed plant response rating: 125 g ai/ha, preemergence, 0 to 100 scale, 0 no effect, 100 complete control; for Ragweed plant response rating (0 to 100 scale): 500 g ai/ha Preemergence, approx. 10 days
Method in brief: as §1

[15] = test system: barnyardgrass (Echinochloa crus-galli); experiment: Test A preemergence, visual plant response rating; conditions: for Barnyardgrass plant response rating: 125 g ai/ha, preemergence, 0 to 100 scale, 0 no effect, 100 complete control; for Barnyardgrass plant response rating (0 to 100 scale): 500 g ai/ha Preemergence, approx. 10 days
Method in brief: as §1

[16] = test system: foxtail, giant (giant foxtail, Setaria faberii); experiment: Test A preemergence, visual plant response rating; conditions: for Foxtail, Giant plant response rating: 125 g ai/ha, preemergence, 0 to 100 scale, 0 no effect, 100 complete control; for Foxtail, Giant plant response rating (0 to 100 scale): 500 g ai/ha Preemergence, approx. 10 days
Method in brief: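 Ratings use a 0–100 visual scale (100 = complete control) against untreated controls, scored about 10 days after greenhouse treatment. Test chemicals were formulated in surfactant-containing non-phytotoxic solvent and applied either as soil spray after planting (preemergence) or onto one- to two-leaf, 2–10 cm plants (postemergence).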

kochia (Kochia scoparia) [17] = experiment: Test A preemergence, visual plant response rating; conditions: for Kochia plant response rating: 125 g ai/ha, preemergence, 0 to 100 scale, 0 no effect, 100 complete control; for Kochia plant response rating (0 to 100 scale): 500 g ai/ha Preemergence, approx. 10 days
Method in brief: as §1

[18] = test system: pigweed (Amaranthus retroflexus); experiment: Test A preemergence, visual plant response rating; conditions: for Pigweed plant response rating: 125 g ai/ha, preemergence, 0 to 100 scale, 0 no effect, 100 complete control; for Pigweed plant response rating (0 to 100 scale): 500 g ai/ha Preemergence, approx. 10 days
Method in brief: as §1

Compound | Ryegrass, Italian plant response rating (0 to 100 scale) [1] | Ryegrass, Italian plant response rating [1] | Corn plant response rating (0 to 100 scale) (corn (Zea mays)) | Corn plant response rating (corn (Zea mays)) | Ragweed plant response rating (0 to 100 scale) [2] | Ragweed plant response rating [2] | Blackgrass plant response rating (0 to 100 scale) [3] | Blackgrass plant response rating [3] | Barnyardgrass plant response rating (0 to 100 scale) [4] | Barnyardgrass plant response rating [4] | Foxtail, Giant plant response rating (0 to 100 scale) [5] | Foxtail, Giant plant response rating [5] | Wheat plant response rating (0 to 100 scale) [6] | Wheat plant response rating [6] | Kochia plant response rating (0 to 100 scale) (kochia (Kochia scoparia) [7]) | Kochia plant response rating (kochia (Kochia scoparia) [7]) | Galium plant response rating (0 to 100 scale) [8] | Galium plant response rating [8] | Pigweed plant response rating (0 to 100 scale) [9] | Pigweed plant response rating [9] | further results
CON=C(c1cc(C)ccc1Cl)c1c(O)c(C)nn(C)c1=O [Compound 67] | 20 | 10 | 0 | 0 | 70 | 50 | 30 | 0 | 0 | 0 | 10 | 0 | 0 | 0 | 20 | 20 | 80 | 70 | 30 | 0 | Plant response rating, Ducksalad (0 to 100 scale, 0 is no effect, 100 is complete control) [10]: 0; Plant response rating, Barnyardgrass (0 to 100 scale, 0 is no effect, 100 is complete control) [11]: 0; Plant response rating, Rice (0 to 100 scale, 0 is no effect, 100 is complete control) (rice (Oryza sativa)): 0; Plant response rating, Sedge, Umbrella (0 to 100 scale, 0 is no effect, 100 is complete control) [12]: 0; Ryegrass, Italian plant response rating [13]: 0; Ryegrass, Italian plant response rating (0 to 100 scale) [13]: 10; Ragweed plant response rating [14]: 10; Ragweed plant response rating (0 to 100 scale) [14]: 10; Barnyardgrass plant response rating [15]: 0; Barnyardgrass plant response rating (0 to 100 scale) [15]: 0; Foxtail, Giant plant response rating [16]: 0; Foxtail, Giant plant response rating (0 to 100 scale) [16]: 0; Kochia plant response rating (kochia (Kochia scoparia) [17]): 0; Kochia plant response rating (0 to 100 scale) (kochia (Kochia scoparia) [17]): 10; Pigweed plant response rating [18]: 0; Pigweed plant response rating (0 to 100 scale) [18]: 0
CCc1cccc(/C(=N\OC)c2c(O)c(C)nn(C)c2=O)c1 [Compound 68] | 30 | 20 | 0 | 0 | 90 | 70 | 30 | 30 | 0 | 0 | 10 | 0 | 0 | 0 | 80 | 70 | 70 | 60 | 80 | 30 | Plant response rating, Ducksalad (0 to 100 scale, 0 is no effect, 100 is complete control) [10]: 0; Plant response rating, Barnyardgrass (0 to 100 scale, 0 is no effect, 100 is complete control) [11]: 0; Plant response rating, Rice (0 to 100 scale, 0 is no effect, 100 is complete control) (rice (Oryza sativa)): 0; Plant response rating, Sedge, Umbrella (0 to 100 scale, 0 is no effect, 100 is complete control) [12]: 0; Ryegrass, Italian plant response rating [13]: 30; Ryegrass, Italian plant response rating (0 to 100 scale) [13]: 60; Ragweed plant response rating [14]: 20; Ragweed plant response rating (0 to 100 scale) [14]: 50; Barnyardgrass plant response rating [15]: 0; Barnyardgrass plant response rating (0 to 100 scale) [15]: 0; Foxtail, Giant plant response rating [16]: 0; Foxtail, Giant plant response rating (0 to 100 scale) [16]: 20; Kochia plant response rating (kochia (Kochia scoparia) [17]): 10; Kochia plant response rating (0 to 100 scale) (kochia (Kochia scoparia) [17]): 40; Pigweed plant response rating [18]: 50; Pigweed plant response rating (0 to 100 scale) [18]: 80
